Test results taken from patent US20090203693A1, “THERAPEUTIC AGENT FOR LIVER FIBROSIS” (Eisai R & D Management Co., Ltd., priority 2006, published 2009).

biological target: T1, His6-DDR2 (cytoplasmic domain of human DDR2) (Homo sapiens, UniProt Q16832); test: Determination of DDR2 kinase inhibitory activity (His6-DDR2 tyrosine autophosphorylation, HTRF); type: biochemical; details: cell free, ATP, room temperature 10 minutes, HTRF detection; read-out: IC50 (concentration of the test substance required for inhibiting His6-DDR2 kinase activity by 50%)
T1 construct: cytoplasmic domain of DDR2 having 6 histidines fused to the N-terminus thereof; made in house; host or cells: Sf9 insect cells (baculovirus, pFastBac-HT)
T1 sequence (Q16832 422-855 limits assumed): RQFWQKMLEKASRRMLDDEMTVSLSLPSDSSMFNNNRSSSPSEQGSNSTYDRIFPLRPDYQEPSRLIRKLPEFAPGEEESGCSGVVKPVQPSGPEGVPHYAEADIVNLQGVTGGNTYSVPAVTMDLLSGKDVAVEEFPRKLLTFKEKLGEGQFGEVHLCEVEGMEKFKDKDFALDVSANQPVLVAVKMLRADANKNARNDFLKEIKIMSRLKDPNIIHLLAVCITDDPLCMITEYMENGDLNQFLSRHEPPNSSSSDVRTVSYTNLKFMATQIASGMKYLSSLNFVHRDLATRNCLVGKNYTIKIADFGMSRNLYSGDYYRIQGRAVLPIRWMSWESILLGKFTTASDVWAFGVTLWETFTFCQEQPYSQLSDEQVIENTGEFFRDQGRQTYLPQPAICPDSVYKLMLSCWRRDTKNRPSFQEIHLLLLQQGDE
Description: A DNA fragment of cytoplasmic domain of human DDR2 (SEQ ID NO: 1) was isolated by PCR method (Expand High Fidelity (purchased from Roche)) according to a conventional technique using human brain cDNA library (purchased from Clontech) as a template and SEQ ID NO:3: 5′-[…]-3′ and SEQ ID NO:4: 5′-[…]-3′ (purchased from JBioS) as primers. This DNA fragment was inserted into a baculovirus transplacement vector (pFastBac™-HT (purchased from Invitrogen)) to obtain a recombinant construct. Insect cells (Spodoptera frugiperda 9 (Sf9 cells)) were transfected with this recombinant construct, thereby preparing a DDR2 recombinant baculovirus solution. For preparation of a recombinant baculovirus, we referred to a standard textbook (Bac-to-Bac Baculovirus Expression System (Invitrogen)).
The above-described DDR2 recombinant Baculovirus solution (0.07 mL) was added to Sf9 cells (7×10^7 cells) suspended in 2.5% FBS-containing SF-900II medium (purchased from Invitrogen) and shake-cultured at 27° C. for 72 hours. Then, this DDR2 recombinant Baculovirus-infected cells were subjected to centrifugation at 1,600 rpm at 4° C. for 6 minutes and the supernatant was removed. The precipitated infected cells were suspended in 10 mL of ice-cold PBS and centrifuged at 1,600 rpm at 4° C. for 6 minutes to remove the supernatant. The precipitated infected cells were suspended in 5 mL of ice-cold lysis buffer (50 mM Tris-HCl (pH 8.5), 5 mM 2-mercaptoethanol, 100 mM KCl, 1 mM PMSA, 1% (v/v) NP40), and centrifuged at 10,000 rpm at 4° C. for 10 minutes to obtain the supernatant.
This supernatant was added to a Ni-NTA agarose column (1.5 mL (purchased from Qiagen)) equilibrated with 5 mL of buffer A (20 mM Tris-HCl (pH 8.5), 5 mM 2-mercaptoethanol, 500 mM KCl, 20 mM imidazole, 10% (v/v) glycerol). This column was sequentially washed with 10 mL of buffer A, 2 mL of buffer B (20 mM Tris-HCl (pH8.5), 5 mM 2-mercaptoethanol, 1 M KCl, 10% (v/v) glycerol) and 2 mL of buffer A. Subsequently, 4 mL of buffer C (20 mM Tris-HCl (pH 8.5), 5 mM 2-mercaptoethanol, 100 mM KCl, 100 mM imidazole, 10% (v/v) glycerol) was added to obtain an eluate. This eluate was placed in a dialysis membrane (purchased from Spectrum Medical Industries) and dialyzed against 1 L of dialysis buffer (20 mM Tris-HCl, 10% (v/v) glycerol, 1 mM dithiothreitol, 0.1 mM Na3VO4, 0.1 mM EGTA) at 4° C. overnight. After dialysis, a portion of the eluate was subjected to SDS-PAGE and an amount of the recombinant protein detected at a molecular weight of about 40 kDa (His6-DDR2 (cytoplasmic domain of DDR2 having 6 histidines fused to the N-terminus thereof)) by Coomassie brilliant blue staining was quantitated using BSA as a standard substance.
To each well of a 96-well black half plate (purchased from Corning, Product No: 3694), 20 ng of His6-DDR2, 35 μL of 25 mM Hepes solution (pH 7.4) containing 14 mM MgCl2 and a test substance dissolved in dimethylsulfoxide (at 100-fold dilution with 1% BSA; 5 μL) were added to a total amount of 40 μL. To this, […] of 50 μM ATP (purchased with Sigma) diluted with 25 mM Hepes solution was added and incubated at room temperature for 10 minutes. Thereafter, 10 μL of 50 mM EDTA (pH 8.0) (purchased from Wako Pure Chemical Industries) was added to terminate the kinase reaction.
Tyrosine-phosphorylated DDR2 was detected using homogeneous time resolved fluorescence (HTRF) technique (Analytical Biochemistry, 269, 94-104, 1999). Specifically, to each well of the reaction solutions mentioned above, 20 μL of 25 mM Hepes solution containing 1 M KF, 4.75 ng of europium cryptate-labeled anti-phosphorylated tyrosine antibody (Eu(K)-PT66) and 100 ng of XL665-labeled anti-His antibody (XL665-Anti-His) was added. This reaction solution was incubated at room temperature overnight. Thereafter, fluorescence intensities of each well at 665 nm and 620 nm were measured under irradiation at an excitation wavelength of 337 nm using Discovery HTRF microplate analyzer (from Packard). […]

SMILES | IC50
CNC(=O)c1cc2c(Oc3ccc(NC(=O)NC4CC4)c(Cl)c3)ccnc2cc1OCCOC [Compound 18, N6-methyl-4-(3-chloro-4-(((cyclopropylamino)carbonyl)amino)phenoxy)-7-(2-methoxyethoxy)-6-quinolinecarboxamide] | 0.4 nM
N#Cc1cc2c(Oc3ccc(Cl)c(NC(=O)NC4CC4)c3)ccnc2cc1OC[C@H](O)CN1CCCC1 [Compound 17] | 20.8 nM
COc1cc2nccc(Oc3ccc(NC(=O)Nc4ccc(F)cc4)c(F)c3)c2cc1C(N)=O [Compound 8, 4-(4-((4-fluoroanilino)carbonyl)amino-3-fluorophenoxy)-7-methoxy-6-quinoline carboxamide] | 1.2 nM
CCNC(=O)Nc1ccc(Oc2ccnc3cc(OC[C@H](O)CN(CC)CC)c(C(=O)NC)cc23)cc1Cl [Compound 21] | 28 nM
CN1CCC(C(=O)Nc2cc(Oc3ccc4c(ccn4C(=O)Nc4ccccc4)c3)ccn2)CC1 [Compound 14, N1-phenyl-5-((2-(((1-methyl-4-piperidyl)carbonyl)amino)-4-pyridyl)oxy)-1H-1-indolecarboxamide] | 0.24 nM
N#Cc1cc2c(Oc3ccc(Cl)c(NC(=O)NC4CC4)c3)ccnc2cc1OCCN1CCCC1 [Compound 15, N-(2-chloro-5-((6-cyano-7-(2-(1-pyrrolidino)ethoxy)-quinolyl)oxy)phenyl)-N′-cyclopropylurea] | 822 nM
CCNC(=O)Nc1ccc(Oc2ccnc3cc(OCC4CCN(C)CC4)c(C(=O)NC)cc23)cc1Cl [Compound 23, N6-methyl-4-(3-chloro-4-(((ethylamino)carbonyl)amino)phenoxy)-7-((1-methyl-4-piperidyl)methoxy)-6-quinolinecarboxamide] | 18 nM
COc1cc2nccc(Oc3ccc(NC(=O)NC4CC4)c(Cl)c3)c2cc1C(N)=O [Compound 11, 4-(3-chloro-4-(cyclopropylaminocarbonyl)aminophenoxy)-7-methoxy-6-quinolinecarboxamide] | 0.91 nM
COCCNC(=O)c1cc2c(Oc3ccc(NC(=O)NC4CC4)c(Cl)c3)ccnc2cc1OC [Compound 13, N6-(2-methoxyethyl)-4-(3-chloro-4-(((cyclopropylamino)carbonyl)amino)phenoxy)-7-methoxy-6-quinolinecarboxamide] | 18 nM
COc1cc2nccc(Oc3ccc4c(ccn4C(=O)NC4CC4)c3)c2cc1C(N)=O [Compound 12, 6-carbamoyl-4-(1-cyclopropylcarbamoyl-1H-indole-5-yloxy)-7-methoxyquinoline] | 0.15 nM
CCNC(=O)Nc1ccc(Oc2ccnc3cc(OC[C@H](O)CN4CCCC4)c(C(=O)NC)cc23)cc1Cl [Compound 22, N6-methyl-4-(3-chloro-4-(((ethylamino)carbonyl)amino)phenoxy)-7-((2R)-2-hydroxy-3-(1-pyrrolidino)propoxy)-6-quinolinecarboxamide] | 0.4 nM
COCCOc1cc2nccc(Oc3ccc(NC(=O)Nc4cccc(S(C)(=O)=O)c4)c(F)c3)c2cc1C#N [Compound 7, N-(4-(6-cyano-7-(2-methoxyethoxy)-4-quinolyl)oxy-2-fluorophenyl)-N′-(3-methylsulfonylphenyl)urea] | 0.63 nM
CNC(=O)Nc1cc(Oc2ccnc3cc(OC)c(C(=O)NC)cc23)ccc1Cl [Compound 16, N6-methyl-4-(4-chloro-3-(((methylamino)carbonyl)amino)phenoxy)-7-methoxy-6-quinolinecarboxamide] | 1890 nM

Further lines, results first:

IC50 | SMILES
1.3 nM | COc1cc2nccc(Oc3ccc(NC(=O)Nc4cccc(C(N)=O)c4)cc3)c2cc1OC [Compound 4, N-(3-carbamoylphenyl)-N′-(4-((6,7-dimethoxy-4-quinolinyl)oxy)phenyl)urea]
1.9 nM | COc1cc2nccc(Oc3ccc4c(ccn4C(=O)Nc4ccc(F)cc4)c3)c2cc1OC [Compound 9, 6,7-dimethoxy-4-(5-(1-(4-fluorophenylcarbamoyl)-indolyl)oxy)quinoline]
1.2 nM | COc1cc2nccc(Oc3ccc(NC(=O)Nc4cccc(SC)c4)cc3)c2cc1OC [Compound 5, N-(3-methylthiophenyl)-N′-(4-((6,7-dimethoxy-4-quinolinyl)oxy)phenyl)urea]
0.06 nM | COc1ccc(NC(=O)Nc2ccc(Oc3ccnc4cc(OC)c(OC)cc34)cc2)cc1 [Compound 1, N-(4-methoxyphenyl)-N′-(4-((6,7-dimethoxy-4-quinolinyl)oxy)phenyl)urea]
1.1 nM | COc1cc2nccc(Oc3ccc(NC(=O)Nc4cccc(S(C)(=O)=O)c4)cc3)c2cc1OC [Compound 6, N-(3-methylsulfonylphenyl)-N′-(4-((6,7-dimethoxy-4-quinolinyl)oxy)phenyl)urea]
428 nM | CCNC(=O)Nc1ccc(Oc2ccnc3cc(OC)c(C(=O)NCC)cc23)cc1Cl [Compound 20, N6-ethyl-4-(3-chloro-4-(((ethylamino)carbonyl)amino)phenoxy)-7-methoxy-6-quinolinecarboxamide]
178 nM | CCNC(=O)Nc1ccc(Oc2ccnc3cc(OC)c(C(=O)NC)cc23)cc1Cl [Compound 19, N6-methyl-4-(3-chloro-4-(((ethylamino)carbonyl)amino)phenoxy)-7-methoxy-6-quinolinecarboxamide]
1.5 nM | COc1cc2nccc(Oc3ccc(NC(=O)NCCCSC)c(F)c3)c2cc1C(N)=O [Compound 10, 4-(3-fluoro-4-((3-methylthiopropylamino)carbonyl)aminophenoxy)-7-methoxy-6-quinolinecarboxamide]
7.2 nM | CCCCNC(=O)Nc1ccc(Oc2ccnc3cc(OC)c(OC)cc23)cc1 [Compound 2, N-n-butyl-N′-(4-((6,7-dimethoxy-4-quinolinyl)oxy)phenyl)urea]
